Experimental data as given in PMC8704707 (Pharmaceuticals, 2021).
≈ marks a conversion by molar mass, not a printed value. Where “and” joins values, the source holds several entries; their conditions need not be identical. Equal values may be shown once. Read-outs that look alike come from different tables or passages of the source.

Columns and labels:
[1] = test system: Trichophyton interdigitale ATCC 9533; test: microbe, parasite or virus in culture; format: cell-based
[2] = test system: Enterococcus faecalis ATCC 29212; test: Antibacterial microdilution broth method (EUCAST); format: cell-based
[3] = test system: Candida parapsilosis ATCC 22019; test: microbe, parasite or virus in culture; format: cell-based; settings: Lodderomyces parapsilosis
[4] = test system: Klebsiella pneumoniae ATCC 10031; settings: for MIC KP 24 h: 24 h incubation; for MIC KP 48 h: 48 h incubation
[5] = molecular target: BuChE from equine serum (EqBuChE) (Equus caballus, UniProt P81908); test: biochemical
Sequence of BuChE from equine serum (EqBuChE) (P81908 whole entry): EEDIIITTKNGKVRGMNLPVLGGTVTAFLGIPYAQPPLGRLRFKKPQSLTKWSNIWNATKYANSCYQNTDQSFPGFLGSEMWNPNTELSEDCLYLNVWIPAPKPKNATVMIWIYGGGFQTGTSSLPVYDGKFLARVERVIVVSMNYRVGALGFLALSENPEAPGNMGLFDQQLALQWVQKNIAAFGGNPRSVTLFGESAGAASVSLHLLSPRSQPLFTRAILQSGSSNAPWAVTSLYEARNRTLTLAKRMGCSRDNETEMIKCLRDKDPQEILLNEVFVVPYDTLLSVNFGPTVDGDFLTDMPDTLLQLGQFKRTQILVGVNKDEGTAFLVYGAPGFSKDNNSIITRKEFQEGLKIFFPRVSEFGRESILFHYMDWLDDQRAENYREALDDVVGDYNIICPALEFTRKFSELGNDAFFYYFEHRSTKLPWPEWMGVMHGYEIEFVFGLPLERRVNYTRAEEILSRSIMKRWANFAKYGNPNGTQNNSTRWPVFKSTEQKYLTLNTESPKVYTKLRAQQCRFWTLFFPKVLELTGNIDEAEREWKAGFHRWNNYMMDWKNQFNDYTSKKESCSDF

[6] = test system: HepG2 cells; test: LDH release assay (CytoTox 96), membrane integrity; settings: read-out: EC50 LDH release assay
[7] = test system: Staphylococcus aureus ATCC 29213; test: Antibacterial microdilution broth method (EUCAST); format: cell-based
[8] = test system: Candida krusei ATCC 6258; test: microbe, parasite or virus in culture; format: cell-based; settings: Pichia kudriavzevii
[9] = in vitro; settings: human
[10] = test system: methicillin-resistant Staphylococcus aureus ATCC 43300; test: Antibacterial microdilution broth method (EUCAST); format: cell-based; settings: ATCC 43300 / MRSA
[11] = test system: Candida tropicalis ATCC 750; test: microbe, parasite or virus in culture; format: cell-based
[12] = test system: Acinetobacter baumannii ATCC 19606; test: Antibacterial microdilution broth method (EUCAST); format: cell-based
[13] = in vitro; settings: human; for IC50 at 24 h: HepG2 cells
Protocol: (§1) Cytotoxicity of the tested compounds was measured using the standard hepatic cell line HepG2. The used CellTiter 96® assay is based on the reduction of tetrazolium dye (MTS) in living cells to formazan, which is then determined colorimetrically.

[14] = test system: Pseudomonas aeruginosa ATCC 27853; test: Antibacterial microdilution broth method (EUCAST); format: cell-based
[15] = test system: Escherichia coli ATCC 25922; test: Antibacterial microdilution broth method (EUCAST); format: cell-based
[16] = test system: Candida albicans ATCC 24443; test: microbe, parasite or virus in culture; format: cell-based
[17] = test system: Staphylococcus epidermidis ATCC 12228; test: Antibacterial microdilution broth method (EUCAST); format: cell-based
[18] = test system: HepG2 cells
Protocol: as §1

[19] = molecular target: AChE from electric eel (EeAChE) (Electrophorus electricus, UniProt O42275); test: biochemical; format: biochemical
Sequence of AChE from electric eel (EeAChE) (O42275 24-633): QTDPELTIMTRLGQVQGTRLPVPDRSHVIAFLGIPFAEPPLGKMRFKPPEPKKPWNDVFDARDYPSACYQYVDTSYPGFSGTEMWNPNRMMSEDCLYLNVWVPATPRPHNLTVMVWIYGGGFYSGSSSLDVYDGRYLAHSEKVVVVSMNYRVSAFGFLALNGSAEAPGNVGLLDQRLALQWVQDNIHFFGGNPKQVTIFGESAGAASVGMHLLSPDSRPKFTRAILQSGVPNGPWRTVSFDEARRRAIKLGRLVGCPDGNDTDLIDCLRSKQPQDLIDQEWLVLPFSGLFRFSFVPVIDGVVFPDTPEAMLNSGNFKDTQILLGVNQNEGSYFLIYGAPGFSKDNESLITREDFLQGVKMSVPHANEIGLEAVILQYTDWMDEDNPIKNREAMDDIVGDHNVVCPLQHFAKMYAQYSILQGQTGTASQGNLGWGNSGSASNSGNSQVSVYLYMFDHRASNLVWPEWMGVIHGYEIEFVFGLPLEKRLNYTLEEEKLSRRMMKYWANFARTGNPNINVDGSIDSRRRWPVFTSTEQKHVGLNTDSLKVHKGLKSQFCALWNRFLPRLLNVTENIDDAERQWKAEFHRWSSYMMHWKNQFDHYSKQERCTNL

[20] = test system: eight human pathogenic fungi; test: Antifungal microdilution broth method, whole panel; format: cell-based; settings: not reported in Table 2, read-out: MIC, all fungal strains tested
[21] = ATCC9533, 72 h, read-out: MIC TI 72 h
[22] = ATCC9533, 120 h, read-out: MIC TI 120 h
[23] = ATCC29212, 24 h, read-out: MIC EF 24 h
[24] = ATCC29212, 48 h, read-out: MIC EF 48 h
[25] = ATCC22019, 24 h, read-out: MIC CP 24 h
[26] = ATCC22019, 48 h, read-out: MIC CP 48 h
[27] = ATCC29213, 24 h, read-out: MIC SA 24 h
[28] = ATCC29213, 48 h, read-out: MIC SA 48 h
[29] = ATCC6258, 24 h, read-out: MIC CK 24 h
[30] = ATCC6258, 48 h, read-out: MIC CK 48 h
[31] = ATCC750, 24 h, read-out: MIC CT 24 h
[32] = ATCC750, 48 h, read-out: MIC CT 48 h
[33] = ATCC19606, 24 h, read-out: MIC ACI 24 h
[34] = ATCC19606, 48 h, read-out: MIC ACI 48 h
[35] = ATCC27853, 24 h, read-out: MIC PA 24 h
[36] = ATCC27853, 48 h, read-out: MIC PA 48 h
[37] = ATCC25922, 24 h, read-out: MIC EC 24 h
[38] = ATCC25922, 48 h, read-out: MIC EC 48 h
[39] = ATCC24443, 24 h, read-out: MIC CA 24 h
[40] = ATCC24443, 48 h, read-out: MIC CA 48 h
[41] = ATCC12228, 24 h, read-out: MIC SE 24 h
[42] = ATCC12228, 48 h, read-out: MIC SE 48 h
[43] = mean ± SD, n = three independent experiments, BTCh 40 µM, read-out: IC50 BuChE
[44] = read-out: IC50 cytotoxicity towards HepG2 cell line, CellTiter 96, 24 h incubation
[45] = mean ± SD, n = three independent experiments, ATCh 40 µM, read-out: IC50 AChE

Cl.N=C(NN)N/N=C/c1cc(I)cc(I)c1O [Compound 2e, (E)-Hydrazineyl[2-(2-hydroxy-3,5-diiodobenzylidene)hydrazineyl]methaniminium chloride]
MIC [1, 21]: 125 µM
MIC [1, 22]: 125 µM
MIC [2, 23]: > 125 µM
MIC [2, 24]: > 125 µM
MIC [3, 25]: 125 µM
MIC [3, 26]: 125 µM
MIC KP 24 h [4]: >125 µM
MIC KP 48 h [4]: >125 µM
Type of inhibition of BuChE [5]: mixed inhibition
IC50 ([5]; read-out: IC50 BuChE): 1.69 ± 0.17 µM
EC50 [6]: 132 µM
MIC [7, 27]: 62.5 µM
MIC [7, 28]: 125 µM
MIC [8, 29]: 125 µM
MIC [8, 30]: 125 µM
EC50 at 24 h ([9]; HepG2 cells): > 100 µM
MIC ([10]; 24 h, read-out: MIC MRSA 24 h): 125 µM
MIC ([10]; 48 h, read-out: MIC MRSA 48 h): 125 µM
MIC [11, 31]: 125 µM
MIC [11, 32]: 125 µM
MIC [12, 33]: > 125 µM
MIC [12, 34]: > 125 µM
IC50 at 24 h [13]: > 100 µM
MIC [14, 35]: > 125 µM
MIC [14, 36]: > 125 µM
MIC [15, 37]: > 125 µM
MIC [15, 38]: > 125 µM
MIC [16, 39]: 125 µM
MIC [16, 40]: 125 µM
MIC [17, 41]: 31.2 µM
MIC [17, 42]: 31.2 µM
IC50 ([18]; read-out: IC50 cytotoxicity towards HepG2 cell line): 120 µM
IC50 [19]: 28.2 ± 0.98 µM

[H]/N=C(\N)NN=Cc1ccc([N+](=O)[O-])o1 [Compound 1n, (E)-2-[(5-Nitrofuran-2-yl)methylene]hydrazine-1-carboximidamide]
MIC [2, 23]: 500 µM (≈ 98.6 µg/mL)
MIC [2, 24]: 500 µM (≈ 98.6 µg/mL)
MIC KP 24 h [4]: 250 µM (≈ 49.3 µg/mL)
MIC KP 48 h [4]: 250 µM (≈ 49.3 µg/mL)
IC50 ([5]; IC50 BuChE): 204 ± 13.2 µM
EC50 ([6]; HepG2, 24 h incubation): 3.55 µM
MIC [7, 27]: 62.5 µM (≈ 12.3 µg/mL)
MIC [7, 28]: 125 µM (≈ 24.6 µg/mL)
EC50 at 24 h [9]: < 6 µM
MIC [20]: ≥ 500 µM
MIC ([10]; 24 h, read-out: MIC MRSA 24 h): 125 µM (≈ 24.6 µg/mL)
MIC ([10]; 48 h, read-out: MIC MRSA 48 h): 125 µM (≈ 24.6 µg/mL)
MIC [12, 33]: 250 µM (≈ 49.3 µg/mL)
MIC [12, 34]: 500 µM (≈ 98.6 µg/mL)
IC50 [13]: < 11 µM
MIC [14, 35]: 500 µM (≈ 98.6 µg/mL)
MIC [14, 36]: 500 µM (≈ 98.6 µg/mL)
MIC [15, 37]: 62.5 µM (≈ 12.3 µg/mL)
MIC [15, 38]: 125 µM (≈ 24.6 µg/mL)
MIC [17, 41]: 62.5 µM (≈ 12.3 µg/mL)
MIC [17, 42]: 125 µM (≈ 24.6 µg/mL)
IC50 ([18]; human): 10.4 µM
IC50 [19]: 24.2 ± 0.75 µM
Selectivity AChE/BuChE [19]: 0.12
Type of inhibition of AChE [19]: mixed inhibition

NC(=S)N/N=C/c1ccc([N+](=O)[O-])o1 [Compound 3e, (E)-2-[(5-Nitrofuran-2-yl)methylene]hydrazine-1-carbothioamide]
MIC [2, 23]: 125 µM (≈ 26.8 µg/mL)
MIC [2, 24]: 125 µM (≈ 26.8 µg/mL)
MIC KP 24 h [4]: 62.5 µM (≈ 13.4 µg/mL)
MIC KP 48 h [4]: 62.5 µM (≈ 13.4 µg/mL)
IC50 [5, 43]: > 500 µM
EC50 ([6]; HepG2, 24 h incubation): 5.25 µM
MIC [7, 27]: 62.5 µM (≈ 13.4 µg/mL)
MIC [7, 28]: 62.5 µM (≈ 13.4 µg/mL)
EC50 at 24 h ([9]; HepG2 cells): < 6 µM
MIC ([10]; 24 h, read-out: MIC MRSA 24 h): 62.5 µM (≈ 13.4 µg/mL)
MIC ([10]; 48 h, read-out: MIC MRSA 48 h): 62.5 µM (≈ 13.4 µg/mL)
MIC [12, 33]: > 500 µM
MIC [12, 34]: > 500 µM
IC50 at 24 h [13]: > 29 µM
MIC [14, 35]: > 500 µM
MIC [14, 36]: > 500 µM
MIC [15, 37]: 125 µM (≈ 26.8 µg/mL)
MIC [15, 38]: 250 µM (≈ 53.6 µg/mL)
MIC [17, 41]: 31.2 µM (≈ 6.69 µg/mL)
MIC [17, 42]: 62.5 µM (≈ 13.4 µg/mL)
IC50 [18, 44]: 29.8 µM
Selectivity AChE/BuChE [19]: <0.07
IC50 [19, 45]: 33.16 ± 0.06 µM

CC(=O)Oc1c(I)cc(I)cc1/C=N/NC(=N)N [Compound 2a, (E)-2-[(2-Carbamimidoylhydrazineylidene)methyl]-4,6-diiodophenyl acetate]
MIC [1, 21]: 62.5 µM
MIC [1, 22]: 125 µM
MIC [2, 23]: 250 µM
MIC [2, 24]: 250 µM
MIC [3, 25]: 500 µM
MIC [3, 26]: 500 µM
MIC KP 24 h [4]: 250 µM
MIC KP 48 h [4]: 250 µM
Type of inhibition of BuChE [5]: mixed inhibition
IC50 [5, 43]: < 20 µM and 4.52 µM
EC50 ([6]; HepG2, 24 h incubation): 30.4 µM
MIC [7, 27]: 125 µM
MIC [7, 28]: 125 µM
MIC [8, 29]: 500 µM
MIC [8, 30]: 500 µM
EC50 at 24 h ([9]; HepG2 cells): > 20 µM
MIC ([10]; 24 h, read-out: MIC MRSA 24 h): 125 µM
MIC ([10]; 48 h, read-out: MIC MRSA 48 h): 125 µM
MIC [11, 31]: 500 µM
MIC [11, 32]: 500 µM
MIC [12, 33]: 500 µM
MIC [12, 34]: 500 µM
IC50 at 24 h [13]: > 29 µM
MIC [14, 35]: > 500 µM
MIC [14, 36]: > 500 µM
MIC [15, 37]: 250 µM
MIC [15, 38]: 250 µM
MIC [16, 39]: 125 µM
MIC [16, 40]: 125 µM
MIC [17, 41]: 250 µM
MIC [17, 42]: 250 µM
IC50 [18, 44]: 31.3 µM
Selectivity AChE/BuChE [19]: 4.54
Type of inhibition of AChE [19]: mixed inhibition
IC50 [19, 45]: 20.5 ± 0.48 µM
